The results in this text go back to ChEMBL document CHEMBL1141593, “Acylpyrogallols as inhibitors of antiapoptotic Bcl-2 proteins” (J Med Chem, 2008).

Assay [1] has as its system MDA-MB-231. Kind of assay: Induction of apoptosis in human MDA-MB-231 2LMP cells assessed as cell death at 0.3 uM after 4 days by trypan blue exclusion assay. The settings on record: MDA-MB-231, 96 h.
In assay [2] the test system is MDA-MB-231. The assay is described as follows: Induction of apoptosis in human MDA-MB-231 2LMP cells assessed as cell death at 3 uM after 4 days by trypan blue exclusion assay. The settings on record: MDA-MB-231, 96 h.

Regarding `O=C(c1ccc(Oc2ccccc2)cc1)c1cc(C(=O)c2nc3ccccc3s2)c(O)c(O)c1O`, the cell death at 0.3 µM in the assay on MDA-MB-231 [1] was 31%. In addition, the cell death at 3 µM with MDA-MB-231 [2] was determined as 86%.
